Measured values: PubChem BioAssay AID248 (DTP/NCI, 2004)
Toxic doses and inconclusive results are not listed. No stated cut-off is given here; in the data, active means T/C of 150% or more; inactive means T/C below 125%.

System: L1210 leukemia ip in BDF1 mice, survival T/C
Assay: NCI In Vivo Anticancer Drug Screen. Data for tumor model L1210 Leukemia (intraperitoneal) in B6D2F1 (BDF1) mice
Conditions: endpoint: mean survival time, higher = longer survival
Summary of the method: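 Each compound was tested against a transplantable tumor grown in mice. The endpoint was survival, with treated animals benchmarked against vehicle controls as a simple ratio.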

[1] = dose: 100.0 mg/kg/injection, schedule: Q04DX003 (ip), vehicle: saline
[2] = dose: 200.0 mg/kg/injection, schedule: Q04DX003 (ip), vehicle: saline
[3] = dose: 400.0 mg/kg/injection, schedule: Q04DX003 (ip), vehicle: saline
[4] = dose: 25.0 mg/kg/injection, schedule: Q01DX009 (ip), vehicle: saline with Tween-80
[5] = dose: 100.0 mg/kg/injection, schedule: Q01DX009 (ip), vehicle: Klucel (hydroxypropylcellulose) (HPC)
[6] = dose: 100.0 mg/kg/injection, schedule: Q04DX003 (ip), vehicle: Klucel (hydroxypropylcellulose) (HPC)
[7] = dose: 200.0 mg/kg/injection, schedule: Q01DX009 (ip), vehicle: Klucel (hydroxypropylcellulose) (HPC)
[8] = dose: 200.0 mg/kg/injection, schedule: Q04DX003 (ip), vehicle: Klucel (hydroxypropylcellulose) (HPC)
[9] = dose: 400.0 mg/kg/injection, schedule: Q04DX003 (ip), vehicle: Klucel (hydroxypropylcellulose) (HPC)

Measured: T/C

CC(C)=CBr
inactive: dose: 50.0 mg/kg/injection, schedule: Q01DX009 (ip), vehicle: acetone 96 % of control | dose: 100.0 mg/kg/injection, schedule: Q01DX009 (ip), vehicle: acetone 89 % of control | dose: 200.0 mg/kg/injection, schedule: Q01DX009 (ip), vehicle: acetone 103 % of control

O=[N+]([O-])c1ccc(N/N=C/CC(O)CO)c([N+](=O)[O-])c1 (stereo unspecified)
inactive: dose: 100.0 mg/kg/injection, schedule: Q01DX009 (ip), vehicle: saline 89 % of control | [1] 90 % of control | dose: 200.0 mg/kg/injection, schedule: Q01DX009 (ip), vehicle: saline 86 % of control | [2] 90 % of control | dose: 400.0 mg/kg/injection, schedule: Q01DX009 (ip), vehicle: saline 94 % of control | [3] 91 % of control

CC(C)(C)OC(=O)C1OC1(C)c1ccccc1 (stereo unspecified)
inactive: dose: 75.0 mg/kg/injection, schedule: Q01DX001 (ip), vehicle: other 106 % of control | dose: 150.0 mg/kg/injection, schedule: Q01DX001 (ip), vehicle: other 107 % of control | dose: 300.0 mg/kg/injection, schedule: Q01DX001 (ip), vehicle: other 98 % of control

O=C(n1ccnc1)C(F)(F)F
inactive: dose: 100.0 mg/kg/injection, schedule: Q01DX001 (ip), vehicle: saline sonified 105 % of control | [1] 109 % of control | dose: 200.0 mg/kg/injection, schedule: Q01DX001 (ip), vehicle: saline sonified 108 % of control | [2] 91 % of control | dose: 400.0 mg/kg/injection, schedule: Q01DX001 (ip), vehicle: saline sonified 101 % of control | [3] 97 % of control

Oc1cc(O)c(CN(CCCl)CCCl)cc1CN(CCCl)CCCl
inactive: dose: 5.5 mg/kg/injection, schedule: Q01DX009 (ip), vehicle: saline 115 % of control | dose: 8.2 mg/kg/injection, schedule: Q01DX009 (ip), vehicle: saline 121 % of control | dose: 18.75 mg/kg/injection, schedule: Q01DX009 (ip), vehicle: saline 103 % of control | [4] 101 % of control | dose: 50.0 mg/kg/injection, schedule: Q01DX001 (ip), vehicle: carboxymethylcellulose (CMC) 115 % of control | dose: 50.0 mg/kg/injection, schedule: Q01DX009 (ip), vehicle: saline with Tween-80 94 % of control | dose: 100.0 mg/kg/injection, schedule: Q01DX001 (ip), vehicle: carboxymethylcellulose (CMC) 115 % of control | [1] 110 % of control | dose: 200.0 mg/kg/injection, schedule: Q01DX001 (ip), vehicle: carboxymethylcellulose (CMC) 108 % of control | [2] 92 % of control | dose: 400.0 mg/kg/injection, schedule: Q01DX001 (ip), vehicle: carboxymethylcellulose (CMC) 123 % of control | [3] 90 % of control | dose: 800.0 mg/kg/injection, schedule: Q04DX003 (ip), vehicle: saline 100 % of control

COc1ccc(OC(=O)N2C=Cc3ccccc3C2C#N)cc1 (stereo unspecified)
inactive: dose: 100.0 mg/kg/injection, schedule: Q01DX001 (ip), vehicle: saline 93 % of control | [1] 105 % of control | dose: 200.0 mg/kg/injection, schedule: Q01DX001 (ip), vehicle: saline 97 % of control | [2] 97 % of control | dose: 400.0 mg/kg/injection, schedule: Q01DX001 (ip), vehicle: saline 91 % of control | [3] 97 % of control

O=C(CC(=O)C(F)(F)F)c1ccccc1.O=C(CC(=O)C(F)(F)F)c1ccccc1.[Cu]
inactive: dose: 6.25 mg/kg/injection, schedule: Q01DX009 (ip), vehicle: saline with Tween-80 95 % of control | dose: 6.25 mg/kg/injection, schedule: Q04DX003 (ip), vehicle: saline with Tween-80 91 % of control | dose: 12.5 mg/kg/injection, schedule: Q01DX009 (ip), vehicle: saline with Tween-80 95 % of control | dose: 12.5 mg/kg/injection, schedule: Q04DX003 (ip), vehicle: saline with Tween-80 92 % of control | [4] 92 % of control | dose: 25.0 mg/kg/injection, schedule: Q04DX003 (ip), vehicle: saline with Tween-80 91 % of control

Cc1ncc2c(=O)n(-c3ccc(C(=O)O)cc3)[nH]c2n1
inactive: dose: 75.0 mg/kg/injection, schedule: Q04DX003 (ip), vehicle: Klucel (hydroxypropylcellulose) (HPC) 103 % of control | dose: 100.0 mg/kg/injection, schedule: Q01DX001 (ip), vehicle: Klucel (hydroxypropylcellulose) (HPC) 94 % of control | dose: 150.0 mg/kg/injection, schedule: Q04DX003 (ip), vehicle: Klucel (hydroxypropylcellulose) (HPC) 106 % of control | dose: 200.0 mg/kg/injection, schedule: Q01DX001 (ip), vehicle: Klucel (hydroxypropylcellulose) (HPC) 97 % of control | dose: 300.0 mg/kg/injection, schedule: Q04DX003 (ip), vehicle: Klucel (hydroxypropylcellulose) (HPC) 90 % of control | dose: 400.0 mg/kg/injection, schedule: Q01DX001 (ip), vehicle: Klucel (hydroxypropylcellulose) (HPC) 110 % of control

CCOC(=O)/C=C(/CC(=O)OCC)OCC
inactive: dose: 50.0 mg/kg/injection, schedule: Q01DX005 (ip), vehicle: saline 104 % of control | dose: 100.0 mg/kg/injection, schedule: Q01DX005 (ip), vehicle: saline 94 % of control | dose: 200.0 mg/kg/injection, schedule: Q01DX005 (ip), vehicle: saline 96 % of control | dose: 400.0 mg/kg/injection, schedule: Q01DX005 (ip), vehicle: saline 100 % of control

CCCCCCCCCCCCCCCCCCn1cnc2c(=S)nc[nH]c21
inactive: dose: 12.5 mg/kg/injection, schedule: Q01DX005 (ip), vehicle: other 106 % of control | dose: 25.0 mg/kg/injection, schedule: Q01DX005 (ip), vehicle: other 98 % of control | dose: 50.0 mg/kg/injection, schedule: Q01DX005 (ip), vehicle: other 95 % of control | dose: 100.0 mg/kg/injection, schedule: Q01DX005 (ip), vehicle: other 104 % of control | dose: 200.0 mg/kg/injection, schedule: Q01DX005 (ip), vehicle: other 90 % of control

Cc1scc[n+]1Cc1ccccc1[N+](=O)[O-]
inactive: dose: 5.0 mg/kg/injection, schedule: Q01DX001 (ip), vehicle: saline 109 % of control | dose: 10.0 mg/kg/injection, schedule: Q01DX001 (ip), vehicle: saline 109 % of control | dose: 20.0 mg/kg/injection, schedule: Q01DX001 (ip), vehicle: saline 105 % of control | dose: 40.0 mg/kg/injection, schedule: Q01DX001 (ip), vehicle: saline 109 % of control | dose: 80.0 mg/kg/injection, schedule: Q01DX001 (ip), vehicle: saline 100 % of control

CC(O)C#CC(C)O (stereo unspecified)
inactive: dose: 12.5 mg/kg/injection, schedule: Q01DX009 (ip), vehicle: Klucel (hydroxypropylcellulose) (HPC) 89 % of control | dose: 12.5 mg/kg/injection, schedule: Q04DX003 (ip), vehicle: Klucel (hydroxypropylcellulose) (HPC) 92 % of control | dose: 25.0 mg/kg/injection, schedule: Q01DX009 (ip), vehicle: Klucel (hydroxypropylcellulose) (HPC) 102 % of control | dose: 25.0 mg/kg/injection, schedule: Q04DX003 (ip), vehicle: Klucel (hydroxypropylcellulose) (HPC) 96 % of control | dose: 50.0 mg/kg/injection, schedule: Q01DX009 (ip), vehicle: Klucel (hydroxypropylcellulose) (HPC) 103 % of control | dose: 50.0 mg/kg/injection, schedule: Q04DX003 (ip), vehicle: Klucel (hydroxypropylcellulose) (HPC) 103 % of control

NC(=O)NCO
inactive: dose: 100.0 mg/kg/injection, schedule: Q04DX002 (ip), vehicle: saline with Tween-80 94 % of control | dose: 200.0 mg/kg/injection, schedule: Q04DX002 (ip), vehicle: saline with Tween-80 94 % of control | dose: 400.0 mg/kg/injection, schedule: Q04DX002 (ip), vehicle: saline with Tween-80 90 % of control

CC(=O)Nc1ccc(C(C)(C)C)cc1
inactive: dose: 100.0 mg/kg/injection, schedule: Q01DX001 (ip), vehicle: saline with Tween-80 95 % of control | dose: 200.0 mg/kg/injection, schedule: Q01DX001 (ip), vehicle: saline with Tween-80 95 % of control | dose: 400.0 mg/kg/injection, schedule: Q01DX001 (ip), vehicle: saline with Tween-80 95 % of control

COc1ccc(C=Nc2ccc(Cl)cc2)cc1
inactive: [5] 96 % of control | [6] 102 % of control | [7] 97 % of control | [8] 104 % of control | [9] 100 % of control

CCOC(=O)c1cc(=O)c2cc(S(=O)(=O)F)ccc2[nH]1
inactive: [5] 95 % of control | [7] 97 % of control | dose: 400.0 mg/kg/injection, schedule: Q01DX009 (ip), vehicle: Klucel (hydroxypropylcellulose) (HPC) 97 % of control

C(/C=C/c1ccccc1)=Nc1ccc2c(c1)Cc1ccccc1-2
inactive: [6] 94 % of control | [8] 89 % of control | [9] 89 % of control
